Counter-ions that a name gives are not always drawn. Like-named read-outs stand apart in the source and are kept apart here.

The target of test [1] is T1, α1B Human Adrenergic Receptor (Homo sapiens, UniProt P35368).
T1 construct: The entire coding region of α1B (1563 bp); expressed in transfected cells
T1 sequence (P35368 1-520): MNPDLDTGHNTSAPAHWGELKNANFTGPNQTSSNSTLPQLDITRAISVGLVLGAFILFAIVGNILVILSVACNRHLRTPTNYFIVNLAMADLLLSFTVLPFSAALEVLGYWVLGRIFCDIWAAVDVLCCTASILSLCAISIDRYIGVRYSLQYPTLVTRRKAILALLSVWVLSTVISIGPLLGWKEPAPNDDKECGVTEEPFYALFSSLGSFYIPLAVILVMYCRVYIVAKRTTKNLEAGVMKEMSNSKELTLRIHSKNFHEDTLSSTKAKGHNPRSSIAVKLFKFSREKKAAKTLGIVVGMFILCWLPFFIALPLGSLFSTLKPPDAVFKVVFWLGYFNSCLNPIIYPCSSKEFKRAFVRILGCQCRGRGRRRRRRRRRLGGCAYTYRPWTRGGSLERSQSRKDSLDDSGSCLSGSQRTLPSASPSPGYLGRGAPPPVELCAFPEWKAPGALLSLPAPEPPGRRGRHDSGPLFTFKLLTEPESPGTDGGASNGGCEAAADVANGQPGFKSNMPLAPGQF
Briefly: Radioligand binding, [3H]prazosin, cloned human α1B adrenergic receptor. The essentials: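 [3H]prazosin (0.5 nM) binding was run for 20 min at 37° C in pH 7.5 Tris/MgCl2/ascorbate buffer on membranes of LM(tk−) cells stably expressing the cloned receptor. Filtration through GF/B ended the reaction; 10 μM phentolamine gave nonspecific binding.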

Test [2] addresses T2, α1C Human Adrenergic Receptor (Homo sapiens, UniProt P35348).
T2 construct: The entire coding region of α1C (1401 bp); expressed in transfected cells
T2 sequence (P35348 1-466): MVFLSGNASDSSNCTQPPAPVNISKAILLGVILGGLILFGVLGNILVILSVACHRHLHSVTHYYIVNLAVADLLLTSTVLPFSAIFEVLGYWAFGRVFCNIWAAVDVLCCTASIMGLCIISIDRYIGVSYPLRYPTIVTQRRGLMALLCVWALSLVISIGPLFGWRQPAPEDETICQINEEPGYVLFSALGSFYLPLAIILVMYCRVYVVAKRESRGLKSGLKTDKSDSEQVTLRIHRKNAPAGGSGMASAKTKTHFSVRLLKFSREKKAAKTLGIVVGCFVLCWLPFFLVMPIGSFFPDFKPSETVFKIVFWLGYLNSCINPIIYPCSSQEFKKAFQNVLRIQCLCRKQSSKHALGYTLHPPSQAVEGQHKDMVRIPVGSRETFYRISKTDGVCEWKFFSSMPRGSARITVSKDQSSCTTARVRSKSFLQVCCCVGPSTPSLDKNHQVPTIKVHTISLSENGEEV
Briefly: Radioligand binding, [3H]prazosin, cloned human α1C adrenergic receptor. Put shortly:
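Membranes from LM(tk−) cells stably expressing the cloned human α1C receptor were incubated with 0.5 nM [3H]prazosin at 37° C. for 20 min in 50 mM Tris-HCl, 1 mM MgCl2, 0.1% ascorbic acid, pH 7.5. Nonspecific binding was defined with 10 μM phentolamine, and bound ligand was separated by GF/B filtration.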

For a further test, the target named is T3, α2A receptor (Homo sapiens, UniProt P08913).
T3 construct: host or cells: LM(tk-) cells, line L-α2A
T3 sequence (P08913 1-465): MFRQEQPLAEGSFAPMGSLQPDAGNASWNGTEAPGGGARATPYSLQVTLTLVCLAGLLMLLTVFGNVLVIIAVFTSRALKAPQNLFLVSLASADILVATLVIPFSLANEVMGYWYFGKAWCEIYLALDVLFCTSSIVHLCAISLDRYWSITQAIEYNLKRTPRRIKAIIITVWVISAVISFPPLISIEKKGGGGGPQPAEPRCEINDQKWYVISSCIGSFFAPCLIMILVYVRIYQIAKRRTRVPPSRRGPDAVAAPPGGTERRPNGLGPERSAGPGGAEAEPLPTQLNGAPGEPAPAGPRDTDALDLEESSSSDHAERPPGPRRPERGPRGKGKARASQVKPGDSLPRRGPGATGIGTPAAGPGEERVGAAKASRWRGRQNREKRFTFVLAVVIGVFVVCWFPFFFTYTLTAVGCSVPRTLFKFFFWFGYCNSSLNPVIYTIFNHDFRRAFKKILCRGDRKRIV
As to the kind of experiment: Competition binding, [3H]rauwolscine, human α2A receptor. Put shortly:
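Filter-bound [3H]rauwolscine (0.5 nM) was measured after equilibrium competition with test antagonists on lysates of LM(tk−) cells stably transfected with each human α2 subtype. Buffer: 25 mM glycylglycine, pH 7.6 at room temperature; 10 μM phentolamine gave nonspecific binding.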

The mark [3] stands for this setting: pKi alpha-1 1b, cloned human α1B receptor, LM(tk−) cell membranes.
The mark [4] stands for this setting: pKi alpha-1 1c, cloned human α1C receptor, LM(tk−) cell membranes.
[5] abbreviates: [3H]rauwolscine, human α2A receptor, LM(tk−) cells, read-out: pKi alpha-2 2a (converted).
Setting [6] is: pKi alpha-1 1b, cloned human receptor in LM(tk-) cell membranes, SEM and n in lines below.
The mark [7] stands for this setting: pKi alpha-1 1c, cloned human receptor in LM(tk-) cell membranes, SEM and n in lines below.
The mark [8] stands for this setting: [3H]rauwolscine, LM(tk-) cell line L-α2A, SEM and n in lines below, read-out: pKi alpha-2 2a (converted).
The mark [9] stands for this setting: cloned human receptor in LM(tk-) cell membranes, SEM and n in lines below, read-out: pKi alpha-1 1b (converted).
Setting [10] is: cloned human receptor in LM(tk-) cell membranes, SEM and n in lines below, read-out: pKi alpha-1 1c (converted).

On to `CC1=C(C(=O)NCCCN2CCC(c3ccccc3)(c3ccccc3)CC2)C(c2ccc([N+](=O)[O-])cc2)C(C(=O)NC(C)C)=C(C)N1` (stereo not drawn) [Example 156, 1,4-Dihydro-3-(N-isopropyl) carboxamido-2,6-dimethyl-4-(4-nitrophenyl)-5-{N-[3-(^414-diphenylpiperidin-1-yl)propyl]}carboxamidopyridine], for which the Ki in test [1] (setting [3]) is 676 nM; in test [2] (setting [4]), 95.5 nM; on α2A receptor (setting [5]), 316 nM.
On the same counts, the results for `CCNC(=O)C1=C(COCCN=[N+]=[N-])NC(CC)=C(C(=O)NCCCN2CCC(c3ccccc3)(c3ccccc3)CC2)C1c1ccc([N+](=O)[O-])cc1` (stereo not drawn) [Example 147, 2-((2-Azidoethyl)oxy)methyl-6-ethyl-3-(N-ethyl)carboxamido-1,4-dihydro-4-(4-nitro)phenyl-5-(N-(3-(4,4-diphenylpiperidin-1-yl-)propyl))carboxamidopyridine] are 257 nM, 11 nM and 871 nM.
Take `CCC1=C(C(=O)NCCCN2CCC(c3ccccc3)(c3ccccc3)CC2)C(c2ccc([N+](=O)[O-])cc2)C(C(=O)OCc2ccccc2)=C(C)N1` (stereo not drawn) [Example 4, 5-Benzyloxycarbonyl-2-ethyl-1,4-dihydro-6-methyl-4-(4-nitrophenyl)-3-(N-(3-(4,4-diphenylpiperidin-1-yl)propyl)carboxamido) pyridine, Hydrochloride Salt, Hydrate]: the Ki is 129 nM in test [1] (setting [6]), 67.6 nM in test [2] (setting [7]) and 550 nM at α2A receptor (setting [8]).
In the case of `COC(=O)C1=C(C)NC(C)=C(C(=O)NCCCN2CCC(c3ccccc3)(c3ccccc3)CC2)C1c1ccoc1` (stereo not drawn) [Example 23, 4-(3-Furyl)-1,4-dihydro-3-methoxycarbonyl-2,6-dimethyl-5-(N-(3-(4,4-diphenylpiperidin-1-yl)propyl)carboxamide)pyridine], the values for the Ki (in test [1] (setting [6]); in test [2] (setting [7]); on α2A receptor (setting [8])) were 214 nM, 14.5 nM and 955 nM, respectively.
In the case of `CCC1=C(C(=O)OCCC#N)C(c2ccc([N+](=O)[O-])cc2)C(C(=O)NCCCN2CCC(c3ccccc3)(c3ccccc3)CC2)=C(COC)N1` (stereo not drawn) [Example 135], the Ki in test [1] (cloned human α1B receptor, LM(tk−) cell membranes, read-out: pKi alpha-1 1b (converted)) is 178 nM; in test [2] (cloned human α1C receptor, LM(tk−) cell membranes, read-out: pKi alpha-1 1c (converted)), 105 nM; at α2A receptor (setting [5]), 661 nM.
In the case of `CCC1=C(C(=O)NCCCN2CCC(c3ccccc3)(c3ccccc3)CC2)C(c2cccc(OC)c2)C(C(N)=O)=C(C)N1` (stereo not drawn) [Example 113, 5-Carboxamide-2-ethyl-1,4-dihydro-4-(3-methoxyphenyl)-6-methyl-3-(N-(3-(4,4-diphenylpiperidin-1-yl)propyl)carboxamido)-pyridine], the results for the Ki (in test [1] (setting [3]); in test [2] (setting [4]); at α2A receptor (setting [5])) were 347 nM, 17.8 nM and 759 nM, respectively.
With `COC(=O)C1=C(C)NC(c2ccccc2)=C(C(=O)NCCCN2CCC(c3ccccc3)(c3ccccc3)CC2)C1c1ccc([N+](=O)[O-])cc1` (stereo not drawn) [Example 78, 1,4-Dihydro-5-methoxycarbonyl-6-methyl-4-(4-nitro)phenyl-2-phenyl-3-(N-(3-(4,4-diphenylpiperidin-1-yl)propyl))carboxamidopyridine hydrochloride hydrate], the Ki is 110 nM in test [1] (setting [9]), 4.27 nM in test [2] (setting [10]) and 724 nM at α2A receptor.
As for `COC(=O)C1=C(C)NC(C)=C(C(=O)N(C)CCCN2CCC(c3ccccc3)(c3ccccc3)CC2)C1c1ccc([N+](=O)[O-])cc1` (stereo not drawn) [Example 46, hydrochloride hemihydrate], the Ki is 240 nM in test [1] (setting [9]), 20.4 nM in test [2] (setting [10]) and 676 nM at α2A receptor.
For the compound `CCC1=C(C(=O)NCCCN2CCC(c3ccccc3)(c3ccccc3)CC2)C(c2cccc(OC)c2)C(C(=O)NCCCN2CCC(c3ccccc3)(c3ccccc3)CC2)=C(CC)N1` [Example 112, 2,6-Diethyl-1,4-dihydro-4-(3-methoxyphenyl)-3,5-bis(N-(3-(4,4-diphenylpiperidin-1-yl)propyl)carboxamido)-pyridine], the Ki is 23.4 nM in test [1] (setting [3]), 24.5 nM in test [2] (setting [4]) and 257 nM at α2A receptor (setting [5]).
Consider `COC(=O)C1=C(C)NC(C)=C(C(=O)NCCCN2CCC(c3ccccc3)(c3ccccc3)CC2)C1Cc1ccccc1` (stereo not drawn) [Example 8, 4-Benzyl-1,4-dihydro-3-methoxycarbonyl-2,6-dimethyl-5-(N-(3-(4,4-diphenylpiperidin-1-yl)propyl)carboxamido)pyridine], for which the Ki is 186 nM in test [1] (setting [6]), 75.9 nM in test [2] (setting [7]) and 832 nM on α2A receptor (setting [8]).
As to `CCC1=C(C(=O)OCCC#N)C(c2ccc([N+](=O)[O-])cc2)C(C(=O)NCCCN2CCC(c3ccccc3)(c3ccccc3)CC2)=C(COCCN=[N+]=[N-])N1` (stereo not drawn) [Example 141], the Ki is 33.1 nM in test [1] (setting [3]), 5.37 nM in test [2] (setting [4]) and 603 nM on α2A receptor (setting [5]).
Take `COC(=O)C1=C(C)NC(C)=C(C(=O)NCCCN2CCC(c3ccccc3)(c3ccccc3)CC2)C1c1ccc([N+](=O)[O-])c(C)c1` (stereo not drawn) [Example 28]: the Ki in test [1] (setting [6]) was 240 nM; in test [2] (setting [10]) it was 9.55 nM; at α2A receptor (setting [8]), 2290 nM.
Regarding `CC1=C(C(=O)NCCCN2CCC(c3ccccc3)(c3ccccc3)CC2)C(c2ccc([N+](=O)[O-])cc2)c2c([nH]c(=O)[nH]c2=O)N1` (stereo not drawn) [Example 64], the Ki in test [1] (setting [6]) was 355 nM; in test [2] (setting [7]), 35.5 nM; at α2A receptor (setting [8]), 692 nM.
Turning to `CCC1=C(C(N)=O)C(c2ccc([N+](=O)[O-])cc2)C(C(=O)NCCCN2CCC(C#N)(c3ccccc3)CC2)=C(CC)N1` (single isomer, unassigned; (+)) [(+)-102], the figures for the Ki (in test [1] (setting [3]); in test [2] (setting [4]); at α2A receptor (setting [5])) were 1230 nM, 2.63 nM and 3890 nM, respectively.
On the same counts, the results for `CCC1=C(C(=O)NC)C(c2ccc([N+](=O)[O-])cc2)C(C(=O)NCCCN2CCC(c3ccccc3)(c3ccccc3)CC2)=C(CC)N1` (stereo not drawn) [Example 128, 2,6-Diethyl-1,4-dihydro-5-(N-methyl)carboxamido-4-(4-nitrophenyl)-3-{N-[3-(4,4-diphenylpiperidin-1-yl)propyl]}carboxamidopyridine] are 1050 nM, 3.39 nM and 457 nM.
On the same counts, the results for `CCC1=C(C(=O)NCCCN2CCC(c3ccccc3)(c3ccccc3)CC2)C(c2ccc([N+](=O)[O-])cc2)C(C(=O)NC)=C(COCCN=[N+]=[N-])N1` (stereo not drawn) [Example 151, 2-((2-Azidoethyl)oxy)methyl-6-ethyl-1,4-dihydro-3-(N-methyl)carboxamido-4-(4-nitro)phenyl-5-(N-(3-(4,4-diphenylpiperidin-1-yl)propyl))carboxamidopyridine] are 355 nM, 12.3 nM and 562 nM.

Source of the values: patent publication US6608086B2, “Dihydropyridines and new uses thereof” (Synaptic Pharmaceutical Corporation, priority 1993, dated 2003).
